Earlier results on two compounds are cited in patent US4733002A, “Lipoxygenase inhibitor” (Green Cross Corporation, priority 1984, dated 1988).

SMILES strings stand for the structures.

The test system of this series is 5-lipoxygenase. The following applies: prior art, statement in words.

`O=C(O)/C=C/c1ccc(O)c(O)c1` [caffeic acid]: the 5-lipoxygenase inhibiting activity result is given as “not a satisfactory one”. For the compound `COC(=O)C=Cc1ccc(O)c(O)c1` [its methyl ester], the 5-lipoxygenase inhibiting activity result is “not a satisfactory one”.
